What was measured:
V79 cells = assay: Colony formation, survival fraction of V79 cells; assay type: cell-based, Chinese hamsters; details: SQAP not administered
Description: (§1) An anti-cancer agent and a pharmaceutical composition were administered to test cells and then the cells were cultured. Then, after colonies were formed, the number of colonies was counted. Here, samples in which the concentration of the anti-cancer agent to be administered was varied were prepared, and in each sample, the survival fraction of the cells compared with the case where cells were cultured without administration of the pharmaceutical composition was measured. Regarding the type of anti-cancer agent to be administered, a predetermined anti-cancer agent was selected depending on the type of administration target cells. Note that cells that were cultured without administration of the pharmaceutical composition and the anti-cancer agent were used as a control. Hereinafter, these steps will be described.
(§2) Here, CHO cells, V79 cells, and canine-derived cancer cells were prepared as the test cells. The CHO cells are ovarian cells derived from Chinese hamsters, and the V79 cells are fibroblasts derived from the lungs of Chinese hamsters. Melanoma developing cells (CML6M) and soft tissue sarcoma developing cells (STSA-1) were used as the cancer cells.
(§3) The cancer cells were prepared by being cultured using an αMEM culture medium supplemented with 10% serum and an antibiotic. The cancer cells were prepared such that, when the concentration of the cells in a cell suspension obtained by subjecting the cultured cells to PBS washing and trypsin treatment, the concentration was within a predetermined concentration range. Here, the predetermined concentration ranges were 300 cells/well, 100 to 150 cells/well, and 500 to 1000 cells/well for the CHO/V79 cells, the melanoma cells, and the soft tissue sarcoma cells, respectively.
(§4) Next, the cancer cells were cultured in culture environments to which the anti-cancer agent was added at various concentrations, and were then allowed to form colonies. The culture periods for colony formation were a week, 10 days, and 14 days for CHO and V79, melanoma, and soft tissue sarcoma, respectively. After colonies were formed, washing using a physiological saline solution, fixation using 100% ethanol, and staining using 0.1% crystal violet were performed, and then the number of colonies per well was counted under a microscope. Note that, here, the colony was defined as containing 50 or more cells. […]
A graph with the horizontal axis representing the concentration of the anti-cancer agent and the vertical axis representing the survival fraction was created by plotting the survival fraction measurement results relative to the SQAP administration amounts, and the effect of the addition of SQAP on the survival fraction was examined. Hereinafter, the results from each anti-cancer agent will be shown in a table and described. […]
V79 cells were used as the cells, and cisplatin was used as the anti-cancer agent. The cisplatin was administered at concentrations of 0 μg/mL, 0.1 μg/mL, 0.2 μg/mL, 0.3 μg/mL, 0.4 μg/mL, and 0.5 μg/mL.
V79 cells were used as the cells, and camptothecin was used as the anti-cancer agent. The amount of the camptothecin was set to 0 nM, 5 nM, 10 nM, 15 nM, and 20 nM.
V79 cells were used as the cells, and mitomycin C was used as the anti-cancer agent. The amount of MMC was set to 0 nM, 100 nM, 200 nM, 300 nM, 400 nM, and 500 nM. […]
V79 cells were used as the cells, and taxol was used as the anti-cancer agent. The amount of the taxol was set to 0 nM, 10 nM, 20 nM, and 30 nM.
V79 cells were used as the cells, and MMS was used as the anti-cancer agent. The amount of the MMS was set to 0 μM, 10 μM, 20 μM, 30 μM, and 40 μM.
(§5) In the above examples, the anti-cancer agent and the pharmaceutical composition were administered to the test cells and then the cells were cultured. […]

[1] = system: human colon adenocarcinoma; details: in combination with radiation; mouse with transplanted human colon adenocarcinoma; cited from earlier work
[2] = system: human esophageal squamous cell carcinoma; details: in combination with radiation; mouse with transplanted human esophageal squamous cell carcinoma; cited from earlier work
angiogenesis = details: in combination with radiation; cited from earlier work
[3] = system: soft tissue sarcoma developing cells (STSA-1); assay: Colony formation, survival fraction of canine soft tissue sarcoma cells; assay type: cell-based; details: soft tissue sarcoma cells; doxorubicin 10 nM, SQAP not administered
Description: as §1, §2, §3
(§6) Next, the cancer cells were cultured in culture environments to which the anti-cancer agent was added at various concentrations, and were then allowed to form colonies. The culture periods for colony formation were a week, 10 days, and 14 days for CHO and V79, melanoma, and soft tissue sarcoma, respectively. After colonies were formed, washing using a physiological saline solution, fixation using 100% ethanol, and staining using 0.1% crystal violet were performed, and then the number of colonies per well was counted under a microscope. Note that, here, the colony was defined as containing 50 or more cells. Moreover, mitomycin C, doxorubicin, bleomycin, camptothecin, etoposide, taxol, methyl methanesulfonate, and cisplatin were used as the anti-cancer agent.
(§7) A graph with the horizontal axis representing the concentration of the anti-cancer agent and the vertical axis representing the survival fraction was created by plotting the survival fraction measurement results relative to the SQAP administration amounts, and the effect of the addition of SQAP on the survival fraction was examined. Hereinafter, the results from each anti-cancer agent will be shown in a table and described.
Canine-derived melanoma cells and soft tissue sarcoma cells were used as the cells, and doxorubicin was used as the anti-cancer agent. The amount of the doxorubicin administered to the melanoma cell was set to 0 nM, 5 nM, 10 nM, 15 nM, 20 nM, and 25 nM. […] In Table 2, survival fractions in the case where SQAP was not administered are shown with a solid line, survival fractions in the case where SQAP was administered at a concentration of 10 μM are shown with a broken line, survival fractions in the case where SQAP was administered at a concentration of 20 μM are shown with a 1-dot chain line, and survival fractions in the case where SQAP was administered at a concentration of 30 μM are shown with a 2-dot chain line.
as §5

[4] = system: Melanoma developing cells (CML6M); assay: Colony formation, survival fraction of canine melanoma cells; assay type: cell-based; details: melanoma cells; doxorubicin 15 nM, SQAP not administered
Description: as §1, §2, §3, §6, §7
Canine-derived melanoma cells and soft tissue sarcoma cells were used as the cells, and doxorubicin was used as the anti-cancer agent. […] Also, the concentration of the doxorubicin administered to the soft tissue sarcoma cells was set to 0 nM, 5 nM, 10 nM, and 15 nM. […] In Table 2, survival fractions in the case where SQAP was not administered are shown with a solid line, survival fractions in the case where SQAP was administered at a concentration of 10 μM are shown with a broken line, survival fractions in the case where SQAP was administered at a concentration of 20 μM are shown with a 1-dot chain line, and survival fractions in the case where SQAP was administered at a concentration of 30 μM are shown with a 2-dot chain line.
as §5

CHO cells = assay: Colony formation, survival fraction of CHO cells; assay type: cell-based, Chinese hamsters; details: mitomycin C 500 nM, SQAP not administered
Description: as §1, §2, §3, §4
In the above examples, the anti-cancer agent and the pharmaceutical composition were administered to the test cells and then the cells were cultured. In this example, test cells were cultured after administering pharmaceutical composition (SQAP) alone without administering the anti-cancer agent to the test cells, and then the number of colonies was counted after colonies were formed. […]

Q: For `COc1cc([C@@H]2c3cc4c(cc3[C@@H](O[C@@H]3O[C@@H]5CO[C@@H](C)O[C@H]5[C@H](O)[C@H]3O)[C@H]3COC(=O)[C@H]23)OCO4)cc(OC)c1O` [etoposide, reference compound], which survival fraction (V79 cells; etoposide 30 nM) is on record?
A: Its survival fraction is “about 30%”.

Q: With bleomycin [reference compound] as the compound, how does the survival fraction (V79 cells; bleomycin 15 nM) read?
A: The survival fraction was “about 40%”.

Q: Which “increase in a tumor volume” value [1] does the source give for `CCCCCCCCCCCCCCCCCC(=O)OCCCO[C@H]1O[C@H](CS(=O)(=O)[O-])[C@@H](O)[C@H](O)[C@H]1O.[Na+]` [αSQAP C18:0] here?
A: The value was “suppressed”.

Q: And the “increase in a tumor volume” value [2]?
A: The value was “suppressed”.

Q: And the “angiogenesis in an in-vitro test” value (angiogenesis)?
A: Its value is “inhibited”.

Q: Which survival fraction (V79 cells; taxol 30 nM) does the source give for `CC(=O)O[C@H]1C(=O)[C@@]2(C)[C@H]([C@H](OC(=O)c3ccccc3)[C@]3(O)C[C@H](OC(=O)[C@H](O)[C@@H](NC(=O)c4ccccc4)c4ccccc4)C(C)=C1C3(C)C)[C@]1(OC(C)=O)CO[C@@H]1C[C@@H]2O` [taxol, reference compound] here?
A: The survival fraction was “about 5%”.

Q: For `CCCCCCCCCCCCCCCCCCCCCC(=O)OCCCO[C@H]1O[C@H](CS(=O)(=O)[O-])[C@@H](O)[C@H](O)[C@H]1O.[Na+]` [αSQAP C22:0], which “angiogenesis in an in-vitro test” value (angiogenesis) is on record?
A: The value was “inhibited”.

Q: Which “angiogenesis in an in-vitro test” value (angiogenesis) does the source give for `CCCCCCCCCCCCCC(=O)OCCCO[C@H]1O[C@H](CS(=O)(=O)[O-])[C@@H](O)[C@H](O)[C@H]1O.[Na+]` [αSQAP C14:0] here?
A: The value was “inhibited”.

Q: With `COS(C)(=O)=O` [MMS, methyl methanesulfonate, reference compound] as the compound, how does the survival fraction (V79 cells; MMS 40 μM) read?
A: Its survival fraction is “about 40%”.

Q: For `N.N.[Cl][Pt][Cl]` [cisplatin, reference compound], which survival fraction (V79 cells; cisplatin 0.3 μg/mL) is on record?
A: Its survival fraction is “about 40%”.

Q: For `CCCCCCCCCC(=O)OCCCO[C@H]1O[C@H](CS(=O)(=O)[O-])[C@@H](O)[C@H](O)[C@H]1O.[Na+]` [αSQAP C10:0], which “angiogenesis in an in-vitro test” value (angiogenesis) is on record?
A: Its value is “inhibited”.

Q: With `COc1cccc2c1C(=O)c1c(O)c3c(c(O)c1C2=O)C[C@@](O)(C(=O)CO)C[C@@H]3O[C@H]1C[C@H](N)[C@H](O)[C@H](C)O1` [doxorubicin, reference compound] as the compound, how does the survival fraction [3] read?
A: Its survival fraction is “about 6%”.

Q: And the survival fraction [4]?
A: The survival fraction was “about 20%”.

Q: With `CO[C@@]12[C@H](COC(N)=O)C3=C(C(=O)C(C)=C(N)C3=O)N1C[C@@H]1N[C@@H]12` [mitomycin C, reference compound] as the compound, how does the survival fraction (V79 cells; mitomycin C 500 nM) read?
A: Its survival fraction is “about 50%”.

Q: And the survival fraction (CHO cells)?
A: The survival fraction was “about 40%”.

Q: With `CCCCCCCCCCCCCCCCCC(=O)OCCCO[C@@H]1O[C@H](CS(=O)(=O)[O-])[C@@H](O)[C@H](O)[C@H]1O.[Na+]` [βSQAP C18:0] as the compound, how does the “angiogenesis in an in-vitro test” value (angiogenesis) read?
A: Its value is “inhibited”.

Q: Which survival fraction (V79 cells; camptothecin 20 nM) does the source give for `CC[C@@]1(O)C(=O)OCc2c1cc1n(c2=O)Cc2cc3ccccc3nc2-1` [camptothecin, reference compound] here?
A: The survival fraction was “about 15%”.

Reference: US20240131044A1, “METHOD FOR TREATING CANCER” (M.T.3, Inc., priority 2022, published 2024)
